Measurements: patent US11001577B2, “Pesticidally active azetidine sulfones amide isoxazoline derivatives” (SYNGENTA PARTICIPATIONS AG, priority 2016, dated 2021)
Where two headings read alike, the source gives them in different places.

How the values were obtained:
Format in all cases: in vivo
Diabrotica balteata = Diabrotica balteata (corn root worm), maize sprouts sprayed; conditions: 96 h, read-out: effect in at least one of the two categories (mortality or growth inhibition); for percent effect (mortality or growth inhibition) at 200 ppm: application rate 200 ppm, L2 larvae, 4 days after infestation
Description: Diabrotica balteata (Corn Root Worm)
Maize sprouts placed onto an agar layer in 24-well microtiter plates were treated with aqueous test solutions prepared from 10,000 ppm DMSO stock solutions by spraying. After drying, the plates were infested with L2 larvae (6 to 10 per well). The samples were assessed for mortality and growth inhibition in comparison to untreated samples 4 days after infestation.

Euschistus heros = Euschistus heros (neotropical brown stink bug), soybean leaves sprayed; conditions: 120 h, read-out: effect in at least one of the two categories (mortality or growth inhibition); for percent effect (mortality or growth inhibition) at 200 ppm: application rate 200 ppm, N2 nymphs, 5 days after infestation
Description: Euschistus heros (Neotropical Brown Stink Bug)
Soybean leaves on agar in 24-well microtiter plates were sprayed with aqueous test solutions prepared from 10,000 ppm DMSO stock solutions. After drying the leaves were infested with N2 nymphs. The samples were assessed for mortality and growth inhibition in comparison to untreated samples 5 days after infestation.

Myzus persicae = Myzus persicae (green peach aphid) feeding/contact activity; conditions: 144 h
Description: Myzus persicae (Green Peach Aphid):Feeding/Contact Activity
(§1) Sunflower leaf discs were placed onto agar in a 24-well microtiter plate and sprayed with aqueous test solutions prepared from 10,000 ppm DMSO stock solutions. After drying, the leaf discs were infested with an aphid population of mixed ages. The samples were assessed for mortality 6 days after infestation.

Plutella xylostella [1] = experiment: Plutella xylostella (diamond back moth), artificial diet; conditions: 120 h, read-out: effect in at least one of the two categories (mortality or growth inhibition); for percent effect (mortality or growth inhibition) at 200 ppm: application rate 200 ppm, L2 larvae, 5 days after infestation
Description: Plutella xylostella (Diamond Back Moth)
(§2) 24-well microtiter plates with artificial diet were treated with aqueous test solutions prepared from 10,000 ppm DMSO stock solutions by pipetting. After drying, the plates were infested with L2 larvae (10 to 15 per well). The samples were assessed for mortality and growth inhibition in comparison to untreated samples 5 days after infestation.

Spodoptera littoralis [2] = experiment: Spodoptera littoralis (Egyptian cotton leaf worm), cotton leaf discs; conditions: foliar, 72 h; for percent control (mortality, anti-feedant effect or growth inhibition) at 200 ppm: application rate 200 ppm, L1 larvae, 3 days after infestation
Description: Spodoptera littoralis (Egyptian Cotton Leaf Worm)
Cotton leaf discs were placed onto agar in 24-well microtiter plates and sprayed with aqueous test solutions prepared from 10,000 ppm DMSO stock solutions. After drying the leaf discs were infested with five L1 larvae. The samples were assessed for mortality, anti-feeding effect, and growth inhibition in comparison to untreated samples 3 days after infestation. Control of Spodoptera littoralis by a test sample is given when at least one of the categories mortality, anti-feedant effect, and growth inhibition is higher than the untreated sample.

Tetranychus urticae [3] = experiment: Tetranychus urticae (two-spotted spider mite) feeding/contact activity; conditions: 192 h, read-out: mortality on mixed population (mobile stages)
Description: (§3) Tetranychus urticae (Two-Spotted Spider Mite):Feeding/Contact Activity
(§4) Bean leaf discs on agar in 24-well microtiter plates were sprayed with aqueous test solutions prepared from 10,000 ppm DMSO stock solutions. After drying the leaf discs were infested with a mite population of mixed ages. The samples were assessed for mortality on mixed population (mobile stages) 8 days after infestation.

Thrips tabaci [4] = experiment: Thrips tabaci (onion thrips) feeding/contact activity; conditions: 144 h
Description: (§5) Thrips tabaci (Onion Thrips) Feeding/Contact Activity
as §1, with “on” for “onto”, “in” for “in a”, “plates” for “plate”, “drying” for “drying,”, “a thrips” for “an aphid”

Plutella xylostella [5] = experiment: Comparative Example C1: Plutella xylostella feeding/contact activity
Description: (§6) Compounds of the invention were tested alongside a number of compounds from WO 2013/026931.
Plutella xylostella (Diamond Back Moth):Feeding/Contact Activity
as §2, with “(%)” for “and growth inhibition in comparison to untreated samples”, “infestation at the various application rates” for “infestation.”

Spodoptera littoralis [6] = experiment: Comparative Example C2: Spodoptera littoralis feeding/contact activity; conditions: 3 days after infestation
Description: as §6
Spodoptera littoralis (Egyptian Cotton Leaf Worm):Feeding/Contact Activity
(§7) Cotton leaf discs were placed onto agar in 24-well microtiter plates and sprayed with aqueous test solutions prepared from 10,000 ppm DMSO stock solutions. After drying the leaf discs were infested with five L1 larvae. The samples were assessed for mortality (%) 3 days after infestation at the various application rates.

Tetranychus urticae [7] = experiment: Comparative Example C3: Tetranychus urticae feeding/contact activity; conditions: mobile stages, 8 days after infestation
Description: as §6, §3
as §4, with “mixed population (%) (mobile stages)” for “mixed population (mobile stages)”, “days after infestation at the various application rates.” for “days after infestation.”

Thrips tabaci [8] = experiment: Comparative Example C4: Thrips tabaci feeding/contact activity; conditions: 6 days after infestation
Description: as §6, §5
as §7, with “Sunflower” for “Cotton”, “on” for “onto”, “a thrips population of mixed ages.” for “five L1 larvae.”, “6” for “3”

[9] = application rate 200 ppm, mixed ages, 6 days after infestation, read-out: mortality
[10] = application rate 200 ppm, 8 days after infestation

Cc1cc(C2=NO[C@@](c3cc(Cl)cc(Cl)c3)(C(F)(F)F)C2)ccc1C(=O)NC1CN(S(=O)(=O)N(C)C)C1 [Compound A03, 4-[(5S)-5-(3,5-dichlorophenyl)-5-(trifluoromethyl)-4H-isoxazol-3-yl]-N-[1-(dimethylsulfamoyl)azetidin-3-yl]-2-methyl-benzamide]
percent effect (mortality or growth inhibition) at 200 ppm (Diabrotica balteata): ≥ 80%
percent effect (mortality or growth inhibition) at 200 ppm (Euschistus heros): ≥ 80%
mortality at 200 ppm (Myzus persicae; [9]): ≥ 80%
percent effect (mortality or growth inhibition) at 200 ppm (Plutella xylostella [1]): ≥ 80%
percent control (mortality, anti-feedant effect or growth inhibition) at 200 ppm (Spodoptera littoralis [2]): ≥ 80%
mortality at 200 ppm (Tetranychus urticae [3]; [10]): ≥ 80%
mortality at 200 ppm (Thrips tabaci [4]; [9]): ≥ 80%

Cc1cc(C2=NO[C@@](c3cc(Cl)cc(Cl)c3)(C(F)(F)F)C2)ccc1C(=O)NC1CN(S(=O)(=O)C2CC2)C1 [Compound A04, N-(1-cyclopropylsulfonylazetidin-3-yl)-4-[(5S)-5-(3,5-dichlorophenyl)-5-(trifluoromethyl)-4H-isoxazol-3-yl]-2-methyl-benzamide]
percent effect (mortality or growth inhibition) at 200 ppm (Diabrotica balteata): ≥ 80%
percent effect (mortality or growth inhibition) at 200 ppm (Euschistus heros): ≥ 80%
percent effect (mortality or growth inhibition) at 200 ppm (Plutella xylostella [1]): ≥ 80%
percent control (mortality, anti-feedant effect or growth inhibition) at 200 ppm (Spodoptera littoralis [2]): ≥ 80%
mortality at 200 ppm (Tetranychus urticae [3]; [10]): ≥ 80%

Cc1cc(C2=NOC(c3cc(Cl)cc(Cl)c3)(C(F)(F)F)C2)ccc1C(=O)NC1CN(S(=O)(=O)F)C1 (stereo not drawn) [Compound A06]
Plutella xylostella larval average mortality (%) (Plutella xylostella [5]; application rate 0.195 ppm): 80%
Plutella xylostella larval average mortality (%) (Plutella xylostella [5]; application rate 0.781 ppm): 100%
Plutella xylostella larval average mortality (%) (Plutella xylostella [5]; application rate 3.12 ppm): 100%
Plutella xylostella larval average mortality (%) (Plutella xylostella [5]; application rate 12.5 ppm): 100%
Plutella xylostella larval average mortality (%) (Plutella xylostella [5]; application rate 50 ppm): 100%
Plutella xylostella larval average mortality (%) (Plutella xylostella [5]; application rate 200 ppm): 100%
Spodoptera littoralis larval average mortality (%) (Spodoptera littoralis [6]; application rate 0.195 ppm): 100%
Spodoptera littoralis larval average mortality (%) (Spodoptera littoralis [6]; application rate 0.781 ppm): 100%
Spodoptera littoralis larval average mortality (%) (Spodoptera littoralis [6]; application rate 3.12 ppm): 100%
Spodoptera littoralis larval average mortality (%) (Spodoptera littoralis [6]; application rate 12.5 ppm): 100%
Spodoptera littoralis larval average mortality (%) (Spodoptera littoralis [6]; application rate 50 ppm): 100%
Spodoptera littoralis larval average mortality (%) (Spodoptera littoralis [6]; application rate 200 ppm): 100%
Tetranychus urticae mixed population average mortality (%) (Tetranychus urticae [7]; application rate 0.195 ppm): 0%
Tetranychus urticae mixed population average mortality (%) (Tetranychus urticae [7]; application rate 0.781 ppm): 100%
Tetranychus urticae mixed population average mortality (%) (Tetranychus urticae [7]; application rate 3.12 ppm): 100%
Tetranychus urticae mixed population average mortality (%) (Tetranychus urticae [7]; application rate 12.5 ppm): 100%
Tetranychus urticae mixed population average mortality (%) (Tetranychus urticae [7]; application rate 50 ppm): 100%
Tetranychus urticae mixed population average mortality (%) (Tetranychus urticae [7]; application rate 200 ppm): 100%
Thrips tabaci mixed population average mortality (%) (Thrips tabaci [8]; application rate 0.195 ppm): 0%
Thrips tabaci mixed population average mortality (%) (Thrips tabaci [8]; application rate 0.781 ppm): 100%
Thrips tabaci mixed population average mortality (%) (Thrips tabaci [8]; application rate 3.12 ppm): 100%
Thrips tabaci mixed population average mortality (%) (Thrips tabaci [8]; application rate 12.5 ppm): 100%
Thrips tabaci mixed population average mortality (%) (Thrips tabaci [8]; application rate 50 ppm): 100%
Thrips tabaci mixed population average mortality (%) (Thrips tabaci [8]; application rate 200 ppm): 100%

Cc1cc(C2=NO[C@@](c3cc(Cl)cc(C(F)(F)F)c3)(C(F)(F)F)C2)ccc1C(=O)NC1CN(S(=O)(=O)F)C1 [Compound A10, 3-[[4-[(5S)-5-[3-chloro-5-(trifluoromethyl)phenyl]-5-(trifluoromethyl)-4H-isoxazol-3-yl]-2-methyl-benzoyl]amino]azetidine-1-sulfonyl fluoride]
percent control (mortality or growth inhibition) at 200 ppm (Diabrotica balteata): ≥ 80%
percent control (mortality or growth inhibition) at 200 ppm (Euschistus heros): ≥ 80%
mortality at 200 ppm (Myzus persicae): ≥ 80%
percent control (mortality or growth inhibition) at 200 ppm (Plutella xylostella [1]): ≥ 80%
mortality at 200 ppm (Spodoptera littoralis [2]; read-out: control (mortality, anti-feedant effect, growth inhibition)): ≥ 80%
mortality at 200 ppm (Tetranychus urticae [3]): ≥ 80%
mortality at 200 ppm (Thrips tabaci [4]): ≥ 80%

Cc1cc(C2=NO[C@@](c3cc(Cl)c(F)c(Cl)c3)(C(F)(F)F)C2)ccc1C(=O)NC1CN(S(N)(=O)=O)C1 [Compound A12, 4-[(5S)-5-(3,5-dichloro-4-fluoro-phenyl)-5-(trifluoromethyl)-4H-isoxazol-3-yl]-2-methyl-N-(1-sulfamoylazetidin-3-yl)benzamide]
percent effect (mortality or growth inhibition) at 200 ppm (Diabrotica balteata): ≥ 80%
percent effect (mortality or growth inhibition) at 200 ppm (Euschistus heros): ≥ 80%
mortality at 200 ppm (Myzus persicae; [9]): ≥ 80%
percent effect (mortality or growth inhibition) at 200 ppm (Plutella xylostella [1]): ≥ 80%
percent control (mortality, anti-feedant effect or growth inhibition) at 200 ppm (Spodoptera littoralis [2]): ≥ 80%
mortality at 200 ppm (Tetranychus urticae [3]; [10]): ≥ 80%
mortality at 200 ppm (Thrips tabaci [4]; [9]): ≥ 80%

Cc1cc(C2=NO[C@@](c3cc(Cl)c(F)c(Cl)c3)(C(F)(F)F)C2)ccc1C(=O)NC1CN(S(=O)(=O)N(CC(F)(F)F)CC(F)(F)F)C1 [Compound A13, N-[1-[bis(2,2,2-trifluoroethyl)sulfamoyl]azetidin-3-yl]-4-[(5S)-5-(3,5-dichloro-4-fluoro-phenyl)-5-(trifluoromethyl)-4H-isoxazol-3-yl]-2-methyl-benzamide]
percent effect (mortality or growth inhibition) at 200 ppm (Diabrotica balteata): ≥ 80%
mortality at 200 ppm (Myzus persicae; [9]): ≥ 80%
percent effect (mortality or growth inhibition) at 200 ppm (Plutella xylostella [1]): ≥ 80%
percent control (mortality, anti-feedant effect or growth inhibition) at 200 ppm (Spodoptera littoralis [2]): ≥ 80%
mortality at 200 ppm (Tetranychus urticae [3]; [10]): ≥ 80%
mortality at 200 ppm (Thrips tabaci [4]; [9]): ≥ 80%

Cc1cc(C2=NO[C@@](c3cc(Cl)c(F)c(Cl)c3)(C(F)(F)F)C2)ccc1C(=O)NC1CN(S(=O)(=O)NCC(F)(F)F)C1 [Compound A14, 4-[(5S)-5-(3,5-dichloro-4-fluoro-phenyl)-5-(trifluoromethyl)-4H-isoxazol-3-yl]-2-methyl-N-[1-(2,2,2-trifluoroethylsulfamoyl)azetidin-3-yl]benzamide]
percent effect (mortality or growth inhibition) at 200 ppm (Diabrotica balteata): ≥ 80%
percent effect (mortality or growth inhibition) at 200 ppm (Euschistus heros): ≥ 80%
mortality at 200 ppm (Myzus persicae; [9]): ≥ 80%
percent effect (mortality or growth inhibition) at 200 ppm (Plutella xylostella [1]): ≥ 80%
percent control (mortality, anti-feedant effect or growth inhibition) at 200 ppm (Spodoptera littoralis [2]): ≥ 80%
mortality at 200 ppm (Tetranychus urticae [3]; [10]): ≥ 80%
mortality at 200 ppm (Thrips tabaci [4]; [9]): ≥ 80%

Cc1cc(C2=NO[C@@](c3cc(Cl)cc(C(F)(F)F)c3)(C(F)(F)F)C2)ccc1C(=O)NC1CN(S(=O)(=O)OCC(F)(F)F)C1 [Compound A18, 2,2,2-trifluoroethyl 3-[[4-[(5S)-5-[3-chloro-5-(trifluoromethyl)phenyl]-5-(trifluoromethyl)-4H-isoxazol-3-yl]-2-methyl-benzoyl]amino]azetidine-1-sulfonate]
percent effect (mortality or growth inhibition) at 200 ppm (Diabrotica balteata): ≥ 80%
percent effect (mortality or growth inhibition) at 200 ppm (Euschistus heros): ≥ 80%
percent effect (mortality or growth inhibition) at 200 ppm (Plutella xylostella [1]): ≥ 80%
percent control (mortality, anti-feedant effect or growth inhibition) at 200 ppm (Spodoptera littoralis [2]): ≥ 80%
mortality at 200 ppm (Tetranychus urticae [3]; [10]): ≥ 80%
mortality at 200 ppm (Thrips tabaci [4]; [9]): ≥ 80%
